According to patent publication US9980943B2, “Methods of treating muscular dystrophy” (BOARD OF REGENTS OF THE NEVADA SYSTEM OF HIGHER EDUCATION, …, priority 2013, dated 2018):

How the values were obtained:
Type in all cases: cell-based, mouse
[1] = test system: β-galactosidase in CMV-LacZ C2C12 myoblasts; experiment: CMV-LacZ secondary screen in C2C12 myoblasts (β-Gal stabilizing assay); settings: CMV-LacZ C2C12 myoblasts
Procedure, shortened: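 A secondary screen identifies compounds that stabilize β-gal independently of the native promoter, using CMV-LacZ C2C12 cells. Curves span 0.5–40 μM at six levels, in duplicate.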

[2] = test system: α7 integrin (LacZ reporter in α7+/LacZ myotubes); experiment: Myotube α7 integrin FDG assay (Burkin assay in myotubes, 96-well); settings: myotubes
[3] = test system: β-galactosidase in CMV-LacZ C2C12 myotubes; experiment: CMV-LacZ secondary screen in C2C12 myotubes (β-Gal stabilizing assay); settings: C2C12 CMV-LacZ myotubes, fold relative to DMSO
Procedure, shortened: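 β-Gal level was the read-out, measured in a clonal C2C12 line expressing LacZ from a CMV promoter. Dose-response curves used six concentrations, 0.5 μM up to 40 μM, with duplicate points.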

[4] = test system: α7 integrin (LacZ reporter in α7βgal+/− myoblasts); experiment: Myoblast α7+/LacZ integrin FDG assay (Burkin assay in myoblasts, 96-well); settings: α7+/LacZ myoblasts, 96-well

SMILES	CMV-LACZ in Myoblasts (β-galactosidase activity relative to DMSO) ([1]; 0.5 uM)	CMV-LACZ in Myoblasts (β-galactosidase activity relative to DMSO) ([1]; 1 uM)	CMV-LACZ in Myoblasts (β-galactosidase activity relative to DMSO) ([1]; 5 uM)	CMV-LACZ in Myoblasts (β-galactosidase activity relative to DMSO) ([1]; 10 uM)	CMV-LACZ in Myoblasts (β-galactosidase activity relative to DMSO) ([1]; 20 uM)	CMV-LACZ in Myoblasts (β-galactosidase activity relative to DMSO) ([1]; 40 uM)	Burkin Assay in Myotubes, α7 integrin LacZ reporter signal relative to DMSO ([2]; 0.5 uM)	Burkin Assay in Myotubes, α7 integrin LacZ reporter signal relative to DMSO ([2]; 1 uM)	Burkin Assay in Myotubes, α7 integrin LacZ reporter signal relative to DMSO ([2]; 5 uM)	Burkin Assay in Myotubes, α7 integrin LacZ reporter signal relative to DMSO ([2]; 10 uM)	Burkin Assay in Myotubes, α7 integrin LacZ reporter signal relative to DMSO ([2]; 20 uM)	Burkin Assay in Myotubes, α7 integrin LacZ reporter signal relative to DMSO ([2]; 40 uM)	CMV-LACZ in Myotubes, signal relative to DMSO ([3]; 0.5 uM)	CMV-LACZ in Myotubes, signal relative to DMSO ([3]; 1 uM)	CMV-LACZ in Myotubes, signal relative to DMSO ([3]; 5 uM)	CMV-LACZ in Myotubes, signal relative to DMSO ([3]; 10 uM)	CMV-LACZ in Myotubes, signal relative to DMSO ([3]; 20 uM)	CMV-LACZ in Myotubes, signal relative to DMSO ([3]; 40 uM)	Burkin Assay in Myoblasts, signal relative to DMSO ([4]; 0.5 uM)	Burkin Assay in Myoblasts, signal relative to DMSO ([4]; 1 uM)	also measured
CC1CCN(C(CNS(=O)(=O)c2ccccc2)c2ccccc2)CC1 (stereo not drawn) [MLS002171615-01]	1.0498	1.3505	0.9273	0.9905	1.2159	0.6726	1.107	1.17	0.9709	0.9947	0.8432	0.8303	0.9863	0.7874	0.9989	0.9582	1.0111	1.0711	1.052	0.9407	Burkin Assay in Myoblasts, signal relative to DMSO ([4]; 5 uM): 0.9747; Burkin Assay in Myoblasts, signal relative to DMSO ([4]; 10 uM): 0.8859; Burkin Assay in Myoblasts, signal relative to DMSO ([4]; 20 uM): 0.709; Burkin Assay in Myoblasts, signal relative to DMSO ([4]; 40 uM): 0.6178
COc1ccccc1NS(=O)(=O)c1cc(NC(=O)c2ccc(Cl)nc2)ccc1N1CCCC1 [MLS002248819-01]	0.9206	1.2206	1.2604	1.1575	1.7330	1.0270	1.117	1.198	1.066	1.24	0.9243	0.8508	1.0819	0.9505	1.1171	1.1534	0.9847	1.1929	1.126	1.113	Burkin Assay in Myoblasts, signal relative to DMSO ([4]; 5 uM): 1.068; Burkin Assay in Myoblasts, signal relative to DMSO ([4]; 10 uM): 1.0849; Burkin Assay in Myoblasts, signal relative to DMSO ([4]; 20 uM): 0.8184; Burkin Assay in Myoblasts, signal relative to DMSO ([4]; 40 uM): 0.7689
c1ccc(-c2cn3c4c(sc3n2)CCCC4)cc1 [MLS002636056-01]	0.9392	0.9021	1.0394	1.2571	1.1173	0.8270	0.9619	1.089	0.9203	1.027	0.9045	1.167	0.9855	1.2636	1.0269	1.1613	1.4090	1.1160	1.157	1.066	Burkin Assay in Myoblasts, signal relative to DMSO ([4]; 5 uM): 1.037; Burkin Assay in Myoblasts, signal relative to DMSO ([4]; 10 uM): 1.224; Burkin Assay in Myoblasts, signal relative to DMSO ([4]; 20 uM): 0.9377; Burkin Assay in Myoblasts, signal relative to DMSO ([4]; 40 uM): 0.8203
COc1cc(NC(=O)OCc2ccccc2)c2ncccc2c1 [MLS002667707-01]	1.1434	0.6763	1.1897	1.0803	1.0044	1.1226	0.9955	1.01	0.8939	0.954	0.8049	0.7617	0.8905	1.0590	0.9449	1.0227	1.1576	1.1071	1.0156	0.9172	Burkin Assay in Myoblasts, signal relative to DMSO ([4]; 5 uM): 1.02; Burkin Assay in Myoblasts, signal relative to DMSO ([4]; 10 uM): 1.235; Burkin Assay in Myoblasts, signal relative to DMSO ([4]; 20 uM): 0.9347; Burkin Assay in Myoblasts, signal relative to DMSO ([4]; 40 uM): 0.8314
Cc1ccccc1S(=O)(=O)N1C[C@H]2CON(C)[C@H]2C[C@H]1c1cccc(-c2ccccc2)c1 [MLS002694363-01]	1.1110	1.2840	0.7616	1.0392	1.0123	0.5698	0.9909	1.01	0.9178	0.8787	0.6694	0.4108	1.0695	1.1800	1.1420	0.9775	0.9870	0.7460	1.062	1.061	Burkin Assay in Myoblasts, signal relative to DMSO ([4]; 5 uM): 1.045; Burkin Assay in Myoblasts, signal relative to DMSO ([4]; 10 uM): 1.09; Burkin Assay in Myoblasts, signal relative to DMSO ([4]; 20 uM): 0.7581; Burkin Assay in Myoblasts, signal relative to DMSO ([4]; 40 uM): 0.7066
